This test deals with Alcohol dehydrogenase (Equus caballus, UniProt P00327+P00328). Briefly: Inhibition constant was evaluated against horse liver alcohol dehydrogenase.
`Nc1ncnc2c1ncn2C1O[C@H](CO)[C@H](S(=O)(=O)O)[C@H]1O` (stereo partly specified) showed an Inhibition constant of 1.2 mM.
To `Nc1ncnc2c1ncn2CCCS(=O)(=O)O` belongs 4.9 mM.
To `Nc1ncnc2c1ncn2[C@@H]1O[C@H](COP(=O)(O)O)[C@@H](O)[C@H]1O` [ADENOSINE PHOSPHATE] belongs 0.038 mM; to `COP(=O)(O)OC[C@H]1OC(n2cnc3c(N)ncnc32)[C@H](O)[C@@H]1O` (stereo partly specified), 0.44 mM.
In turn, `Nc1ncnc2c1ncn2CCS(=O)(=O)O` had an Inhibition constant of 4.3 mM.
Regarding `Nc1ncnc2c1ncn2C1O[C@H](CS(=O)(=O)O)[C@@H](O)[C@H]1O` (stereo partly specified), the Inhibition constant is given as 0.18 mM.
